What was measured:
cupgrass, woolly = test: Test C pre-/postemergence herbicide test; assay type: in vivo, Eriochloa villosa
Description: Seeds of plant species selected from blackgrass (Alopecurus myosuroides), ryegrass, Italian (Italian ryegrass, Lolium multiflorum), wheat (winter wheat, Triticum aestivum), galium (catchweed bedstraw, Galium aparine), corn (Zea mays), crabgrass, large (large crabgrass, Digitaria sanguinalis), foxtail, giant (giant foxtail, Setaria faberii), johnsongrass (Sorghum halepense), lambsquarters (Chenopodium album), morningglory (Ipomoea coccinea), nutsedge, yellow (yellow nutsedge, Cyperus esculentus), pigweed (Amaranthus retroflexus), ragweed (common ragweed, Ambrosia elatior), soybean (Glycine max), barnyardgrass (Echinochloa crus-galli), oilseed rape (Brassica napus), waterhemp (common waterhemp, Amaranthus rudis), kochia (Kochia scoparia), oat, wild (wild oat, Avena fatua), surinam grass (Brachiaria decumbens), foxtail, green (green foxtail, Setaria viridis), goosegrass (Eleusine indica), bromegrass, downy (downy bromegrass, Bromus tectorum), nightshade (eastern black nightshade, Solanum ptycanthum), cocklebur (common cocklebur, Xanthium strumarium), cupgrass, woolly (woolly cupgrass, Eriochloa villosa), bermudagrass (Cynodon dactylon), sunflower, (common oilseed sunflower, Helianthus annuus), Russian thistle (Salsola kali) and velvetleaf (Abutilon theophrasti) were planted into a blend of loam soil and sand and treated preemergence with test chemicals formulated in a non-phytotoxic solvent mixture which included a surfactant. At the same time, plants selected from these crop and weed species and also barley (winter barley, Hordeum vulgare), […]), chickweed (common chickweed, Stellaria media), deadnettle (henbit deadnettle, Lamium amplexicaule), and canarygrass (littleseed canarygrass, Phalaris minor) were planted in pots containing Redi-Earth® planting medium (Scotts Company, 14111 Scottslawn Road, Marysville, Ohio 43041) comprising spaghnum peat moss, vermiculite, wetting agent and starter nutrients and treated with postemergence applications of test chemicals formulated in the same manner. Plants ranged in height from 2 to 18 cm (1- to 4-leaf stage) for postemergence treatments. Treated plants and controls were maintained in a greenhouse for 13 to 15 days, after which time all species were compared to controls and visually evaluated. Plant response ratings, summarized in Table C, are based on a scale of 0 to 100 where 0 is no effect and 100 is complete control. A dash (-) response means no test result.

barley, winter = test: Test D pre-/postemergence herbicide test; assay type: in vivo, Hordeum vulgare; conditions: for Plant response rating, Barley, Winter: scale 0 to 100 (0 no effect, 100 complete control); for Plant response rating: Barley, Winter, scale 0 to 100
Description: (§1) Seeds of plant species selected from bluegrass (annual bluegrass, Poa annua), blackgrass (Alopecurus myosuroides), canarygrass (littleseed canarygrass, Phalaris minor), chickweed (common chickweed, Stellaria media), galium (catchweed bedstraw, Galium aparine), bromegrass, downy (downy bromegrass, Bromus tectorum), field poppy (Papaver rhoeas), field violet (Viola arvensis), foxtail, green (green foxtail, Setaria viridis), deadnettle (henbit deadnettle, Lamium amplexicaule), ryegrass, Italian (Italian ryegrass, Lolium multiflorum), kochia (Kochia scoparia), lambsquarters (Chenopodium album), oilseed rape (Brassica napus), pigweed (Amaranthus retroflexus), chamomile (scentless chamomile, Matricaria inodora), Russian thistle (Salsola kali), speedwell (bird's-eye speedwell, Veronica persica), barley, spring (spring barley, Hordeum vulgare), wheat, spring (spring wheat, Triticum aestivum), buckwheat, wild (wild buckwheat, Polygonum convolvulus), mustard, wild (wild mustard, Sinapis arvensis), oat, wild (wild oat, Avena fatua), radish, wild (wild radish, Raphanus raphanistrum), […]), barley, winter (winter barley, Hordeum vulgare), and wheat, winter (winter wheat, Triticum aestivum) were planted into a silt loam soil and treated preemergence with test chemicals formulated in a non-phytotoxic solvent mixture which included a surfactant. At the same time, these species were planted in pots containing Redi-Earth® planting medium (Scotts Company, 14111 Scottslawn Road, Marysville, Ohio 43041) comprising spaghnum peat moss, vermiculite, wetting agent and starter nutrients and treated with postemergence applications of the test chemicals formulated in the same manner. Plants ranged in height from 2 to 18 cm (1- to 4-leaf stage). Treated plants and controls were maintained in a controlled growth environment for 7 to 21 days after which time all species were compared to controls and visually evaluated. Plant response ratings, summarized in Table D, are based on a scale of 0 to 100 where 0 is no effect and 100 is complete control. A dash (-) response means no test result.

barley, spring = test: Test D pre-/postemergence herbicide test; assay type: in vivo, Hordeum vulgare; conditions: for Plant response rating, Barley, Spring: scale 0 to 100 (0 no effect, 100 complete control); for Plant response rating: Barley, Spring, scale 0 to 100
Description: as §1

[1] = Postemergence, 31 g ai/ha, scale 0 (no effect) to 100 (complete control)
[2] = Postemergence, 62 g ai/ha, scale 0 to 100 (0 no effect, 100 complete control)
[3] = Postemergence, 125 g ai/ha, scale 0 to 100 (0 no effect, 100 complete control)
[4] = Preemergence, 62 g ai/ha, scale 0 to 100
[5] = Preemergence, 125 g ai/ha, scale 0 to 100 (0 no effect, 100 complete control)
[6] = Preemergence, 31 g ai/ha, scale 0 to 100 (0 no effect, 100 complete control)
[7] = Preemergence, 250 g ai/ha, scale 0 to 100 (0 no effect, 100 complete control)
[8] = Postemergence, 250 g ai/ha, scale 0 to 100 (0 no effect, 100 complete control)

SMILES	Plant response rating, Cupgrass, Woolly (cupgrass, woolly; [1])	Plant response rating, Cupgrass, Woolly (cupgrass, woolly; [2])	Plant response rating, Cupgrass, Woolly (cupgrass, woolly; [3])	Plant response rating, Cupgrass, Woolly (cupgrass, woolly; [4])	Plant response rating, Cupgrass, Woolly (cupgrass, woolly; [5])	Cupgrass, Woolly plant response rating (cupgrass, woolly; [6])	Plant response rating, Barley, Winter (barley, winter; Preemergence, 62 g ai/ha)	Plant response rating, Barley, Winter (barley, winter; Preemergence, 31 g ai/ha)	Plant response rating (barley, winter; Preemergence, 125 g ai/ha)	Plant response rating (barley, winter; Preemergence, 250 g ai/ha)	Plant response rating, Barley, Spring (barley, spring; Preemergence, 62 g ai/ha)	Plant response rating, Barley, Spring (barley, spring; Preemergence, 31 g ai/ha)	Plant response rating (barley, spring; Preemergence, 125 g ai/ha)	Plant response rating (barley, spring; Preemergence, 250 g ai/ha)	Plant response rating (barley, winter; Postemergence, 31 g ai/ha)	Plant response rating (barley, winter; Postemergence, 62 g ai/ha)	Plant response rating (barley, winter; Postemergence, 125 g ai/ha)	Plant response rating (barley, spring; Postemergence, 31 g ai/ha)	Plant response rating (barley, spring; Postemergence, 62 g ai/ha)	Plant response rating (barley, spring; Postemergence, 125 g ai/ha)	other results
O=C1NCC(c2ccc(F)c(Cl)c2)C1C(=O)Nc1ccccc1F (stereo not drawn) [Compound 60]	0	0	5	75	75	55	–	–	–	–	–	–	–	–	–	–	–	–	–	–	–
O=C1NCC(c2ccc(F)c(C(F)(F)F)c2)C1C(=O)Nc1cccc(F)c1F (racemic) [Compound 77]	–	–	–	–	–	–	0	0	45	55	5	5	25	25	–	–	–	–	–	–	–
O=C1NCC(c2ccc(C(F)(F)F)cc2)C1C(=O)Nc1ccccc1F (stereo not drawn) [Compound 231]	–	–	–	–	–	–	0	0	–	20	5	0	–	35	0	0	0	0	0	0	Plant response rating (barley, winter; Postemergence, 250 g ai/ha): 0; Plant response rating, Barley, Winter (barley, winter; Preemergence, 125 g ai/ha): 0; Plant response rating (barley, spring; Postemergence, 250 g ai/ha): 0; Plant response rating, Barley, Spring (barley, spring; Preemergence, 125 g ai/ha): 5
O=C1NCC(c2cc(F)c(F)c(F)c2)C1C(=O)Nc1cccc(F)c1F (stereo not drawn) [Compound 48]	0	5	5	70	85	70	–	–	–	–	–	–	–	–	–	–	–	–	–	–	Plant response rating, Cupgrass, Woolly (cupgrass, woolly; Postemergence, 16 g ai/ha, scale 0 to 100 (0 no effect, 100 complete control)): 0; Plant response rating, Cupgrass, Woolly (cupgrass, woolly; Preemergence, 16 g ai/ha, scale 0 to 100): 25
O=C1NCCC1C(=O)N(c1ccc(F)c(F)c1)c1ccccc1F (stereo not drawn) [Compound 5, N-(3,4-difluorophenyl)-N-(2-fluorophenyl)-2-oxo-3-pyrrolidinecarboxamide]	–	–	–	85	90	80	–	–	–	–	–	–	–	–	–	–	–	–	–	–	Plant response rating, Cupgrass, Woolly (cupgrass, woolly; [7]): 95
O=C1NCC(c2ccc(Cl)c(F)c2)C1C(=O)Nc1cccc(F)c1F (stereo not drawn) [Compound 52]	0	5	5	70	75	40	0	0	0	25	0	0	0	5	0	0	0	0	0	0	Plant response rating (barley, winter; Postemergence, 16 g ai/ha): 0; Plant response rating (barley, winter; Postemergence, 250 g ai/ha): 0; Plant response rating, Barley, Winter (barley, winter; Preemergence, 16 g ai/ha): 0; Plant response rating (barley, spring; Postemergence, 16 g ai/ha): 0; Plant response rating (barley, spring; Postemergence, 250 g ai/ha): 0; Plant response rating, Barley, Spring (barley, spring; Preemergence, 16 g ai/ha): 0; Plant response rating, Cupgrass, Woolly (cupgrass, woolly; [8]): 10; Plant response rating, Cupgrass, Woolly (cupgrass, woolly; [7]): 85
O=C1NCC(c2ccc(F)c(F)c2)C1C(=O)Nc1ccccc1C(F)(F)F (racemic) [Compound 6]	–	–	–	–	–	–	0	0	0	20	0	0	0	10	0	0	0	0	0	0	Plant response rating (barley, winter; Postemergence, 16 g ai/ha): 0; Plant response rating (barley, winter; Postemergence, 250 g ai/ha): 0; Plant response rating, Barley, Winter (barley, winter; Preemergence, 16 g ai/ha): 0; Plant response rating (barley, spring; Postemergence, 16 g ai/ha): 0; Plant response rating (barley, spring; Postemergence, 250 g ai/ha): 0; Plant response rating, Barley, Spring (barley, spring; Preemergence, 16 g ai/ha): 0
O=C1NCC(c2cc(F)c(F)cc2F)C1C(=O)Nc1cccc(F)c1F (stereo not drawn) [Compound 50]	0	0	0	–	–	–	0	0	0	–	0	0	0	–	0	0	0	0	0	0	Plant response rating (barley, winter; Postemergence, 16 g ai/ha): 0; Plant response rating, Barley, Winter (barley, winter; Preemergence, 16 g ai/ha): 0; Plant response rating (barley, spring; Postemergence, 16 g ai/ha): 0; Plant response rating, Barley, Spring (barley, spring; Preemergence, 16 g ai/ha): 0; Plant response rating, Cupgrass, Woolly (cupgrass, woolly; [8]): 10
O=C1NCC(c2cccc(OC(F)(F)F)c2)C1C(=O)Nc1ccccc1F (stereo not drawn) [Compound 69]	–	–	–	85	85	–	–	–	–	–	–	–	–	–	–	–	–	–	–	–	Cupgrass, Woolly plant response rating (cupgrass, woolly; Preemergence, 31 g ai/ha, scale 0 to 100, 0 is no effect and 100 is complete control): 75; Plant response rating (scale of 0 to 100), Cupgrass, Woolly (cupgrass, woolly; Preemergence, 250 g ai/ha): 90

Reference: patent US10294202B2, “Pyrrolidinones as herbicides” (FMC Corporation, priority 2013, dated 2019)
